Test results from PubChem BioAssay (NCI).
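Five compound concentrations were applied to cells in 96-well plates for 48 hours; endpoints were derived by simple linear interpolation of the resulting dose-response curve. Here, GI50 denotes the concentration required for 50% inhibition of growth. TGI: concentration producing complete growth inhibition.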

What was measured:
Test in all cases: growth of human tumour cells (NCI), 48 h
[1] = test system: A549 NSCLC
[2] = test system: HCT-15 colon
[3] = test system: NCI-H23 lung
[4] = test system: OVCAR-8 ovarian
[5] = test system: RPMI-8226 leukemia
[6] = test system: SF-539 CNS
[7] = test system: SK-MEL-5 melanoma
[8] = test system: SK-OV-3 ovarian
[9] = test system: UACC-257 melanoma
[10] = test system: NCI/ADR-RES ovarian

| SMILES | TGI [1] [µM] | TGI [2] [µM] | TGI [3] [µM] | TGI [4] [µM] | TGI [5] [µM] | TGI [6] [µM] | TGI [7] [µM] | TGI [8] [µM] | TGI [9] [µM] | GI50 [1] [µM] | GI50 [2] [µM] | GI50 [3] [µM] | GI50 [10] [µM] | TGI [10] [µM] | GI50 [4] [µM] | GI50 [6] [µM] | GI50 [7] [µM] | GI50 [8] [µM] | GI50 [9] [µM] | GI50 [5] [µM] |
| --- | --- | --- | --- | --- | --- | --- | --- | --- | --- | --- | --- | --- | --- | --- | --- | --- | --- | --- | --- | --- |
| C=C(/C=C/C=C(\CO)CCC=C(C)C)[C@H]1CCC2([C@H](CCCO)/C(=C(/C)C=O)CC[C@]2(C)O)[C@H]1O (some centres not stated) | > 100 | > 100 | > 100 | > 100 | > 100 | > 100 | > 100 | > 100 | > 100 | – | – | – | – | – | – | – | – | – | – | – |
| C#CCN(CCCOc1ccc(Cl)cc1Cl)CCCSC(=O)CCCCCN1/C(=C\C=C2/CCCC(/C=C/C3=[N+](CCCCCC(=O)[O-])c4ccccc4C3(C)C)=C2Cl)C(C)(C)c2ccccc21 | 13.2 | 21.9 | 5.09 | 6.83 | – | 2.71 | 3.02 | 8.86 | 4.03 | 3.22 | 4.12 | 1.94 | 20.2 | 62.3 | 1.99 | 1.2 | 1.62 | 2.97 | 1.8 | – |
| CC1(C)N=C(N)N=C(N)N1c1ccc(CCCCCCc2ccc(S(=O)(=O)F)cc2)cc1 | 2.76 | 20.9 | 12.6 | 7.01 | – | – | 2.76 | 23.3 | – | – | – | – | – | 70.9 | – | – | – | – | – | – |
| O=C(Nc1c(Cl)cc([N+](=O)[O-])cc1Cl)C(=O)C(C(=O)c1ccncc1)C1OC(=O)c2ccccc21 (configuration not stated) | > 100 | > 100 | > 100 | > 100 | > 100 | – | – | > 100 | > 100 | – | – | – | – | – | – | – | – | – | – | – |
| O=C1Cc2c([nH]c3ccccc23)-c2cc(Br)ccc2N1 | > 100 | > 100 | > 100 | > 100 | > 100 | > 100 | > 100 | > 100 | > 100 | – | – | – | – | – | – | – | – | – | – | – |
| COc1cc([C@H]2c3cc4c(cc3[C@H](NCc3ccc(F)cc3)C3COC(=O)[C@H]32)OCO4)cc(OC)c1O (some centres not stated) | – | 16.2 | 6.34 | 35.1 | 18.2 | 5.07 | – | 9.78 | 43.6 | – | – | – | – | – | – | – | – | – | – | – |
| CC1(C)O[C@@H](CCl)C[C@@H](C#N)O1 | > 100 | – | > 100 | > 100 | > 100 | > 100 | > 100 | > 100 | > 100 | – | – | – | – | – | – | – | – | – | – | – |
| COc1ccc(C2NC(c3ccc(OC)cc3)C(C)C(=O)C2C)cc1 (configuration not stated) | – | > 100 | > 100 | > 100 | > 100 | > 100 | – | > 100 | > 100 | – | – | – | – | – | – | – | – | – | – | – |
| c1ccc(-c2nc3ccccc3[nH]2)c(OCCCCCOc2ccccc2-c2nc3ccccc3[nH]2)c1 | – | 18.4 | 45.4 | 53 | – | 11.5 | 19.5 | 34 | 65.3 | – | 4.64 | 13.1 | 5.74 | 33.3 | 21.7 | 3.44 | 6.07 | 14.2 | 17.9 | – |
| COc1ccc(S(=O)(=O)NNS(C)(=O)=O)cc1OC | > 100 | > 100 | > 100 | > 100 | > 100 | > 100 | > 100 | – | > 100 | – | – | – | – | – | – | – | – | – | – | – |
| COc1cc2c(cc1OC)C(Sc1ccc(Cl)cc1)c1c(nc(N)c(C#N)c1N)O2 (configuration not stated) | 3.36 | 2.66 | – | 2.76 | 4.8 | 3.03 | 2.71 | 3.12 | 2.96 | 1.75 | 1.19 | – | – | – | 1.39 | 1.61 | 1.39 | 1.74 | 1.58 | 1.42 |
| NC(=O)C1C(=O)Oc2cccnc21 (configuration not stated) | > 100 | > 100 | > 100 | > 100 | > 100 | > 100 | > 100 | > 100 | > 100 | – | – | – | – | – | – | – | – | – | – | – |
| CCOC(=O)c1cnc2c(ccc3ncccc32)c1OCC | > 100 | > 100 | > 100 | > 100 | – | > 100 | > 100 | > 100 | > 100 | – | – | – | – | – | – | – | – | – | – | – |
| O=C(/C=N/O)Nc1cccc(Cl)c1I | > 100 | > 100 | > 100 | > 100 | > 100 | – | > 100 | > 100 | > 100 | – | – | – | – | – | – | – | – | – | – | – |
| COc1ccc(/C(C#N)=C2/O/C(=N/N)C(c3ccc(OC)c(OC)c3)C2=O)cc1OC (configuration not stated) | > 100 | > 100 | > 100 | – | > 100 | > 100 | > 100 | > 100 | > 100 | – | – | – | – | – | – | – | – | – | – | – |
| CNC(=O)N(CCCCC(NC(C)=O)C(=O)NCc1ccccc1)Cc1ccccc1 (configuration not stated) | > 100 | > 100 | > 100 | > 100 | > 100 | > 100 | > 100 | > 100 | > 100 | – | – | – | – | – | – | – | – | – | – | – |
| Nc1c([N+](=O)[O-])ncn1C1OC(CO)C(O)C1O (configuration not stated) | > 100 | > 100 | > 100 | > 100 | > 100 | > 100 | > 100 | > 100 | > 100 | > 100 | > 100 | > 100 | – | – | > 100 | > 100 | > 100 | > 100 | > 100 | > 100 |
| OCCN1CCCN(CCCN2c3ccccc3Sc3ccc(C(F)(F)F)cc32)CC1 | 15.6 | 10.3 | – | 12.2 | 4.46 | 3.12 | 3.09 | 18.4 | 3.65 | 4.69 | 2.74 | – | 3.57 | 14.7 | 3.46 | 1.67 | 1.67 | 5.29 | 1.94 | 2.21 |
| Cc1c(C(=O)/C=C/c2ccc3c(c2)OCO3)[n+](=O)c2ccccc2n1[O-] | > 100 | – | 42.4 | 62.9 | 69.3 | 49.3 | – | 51.2 | > 100 | – | – | – | – | – | – | – | – | – | – | – |
